Assay results reported in patent publication US20250144094A1 (Erasca, Inc., priority 2021, published 2025).
pIC50: −log10 of the molar value.

Molecular target: Recombinant human ULK1 (1-649) (Homo sapiens (Human), UniProt O75385)
Test: ULK1 ADP Glo kinase activity assay, new method (ULKtide peptide substrate)
Conditions: 25° C., 40 minutes, read-out: ULK1 biochemical IC50
Method in brief: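 Kinase activity was read as ADP production (ADP-Glo, luminescence 30 min after detection reagent) following a 40-min, 25 °C reaction of Sf9-expressed GST-ULK1 (1-649) with ULKtide substrate and ATP. Compounds ran as 12-point series starting at 10 μM; four-parameter curve fitting versus DMSO wells gave IC50.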

Chain of Recombinant human ULK1 (1-649) (O75385 1-649): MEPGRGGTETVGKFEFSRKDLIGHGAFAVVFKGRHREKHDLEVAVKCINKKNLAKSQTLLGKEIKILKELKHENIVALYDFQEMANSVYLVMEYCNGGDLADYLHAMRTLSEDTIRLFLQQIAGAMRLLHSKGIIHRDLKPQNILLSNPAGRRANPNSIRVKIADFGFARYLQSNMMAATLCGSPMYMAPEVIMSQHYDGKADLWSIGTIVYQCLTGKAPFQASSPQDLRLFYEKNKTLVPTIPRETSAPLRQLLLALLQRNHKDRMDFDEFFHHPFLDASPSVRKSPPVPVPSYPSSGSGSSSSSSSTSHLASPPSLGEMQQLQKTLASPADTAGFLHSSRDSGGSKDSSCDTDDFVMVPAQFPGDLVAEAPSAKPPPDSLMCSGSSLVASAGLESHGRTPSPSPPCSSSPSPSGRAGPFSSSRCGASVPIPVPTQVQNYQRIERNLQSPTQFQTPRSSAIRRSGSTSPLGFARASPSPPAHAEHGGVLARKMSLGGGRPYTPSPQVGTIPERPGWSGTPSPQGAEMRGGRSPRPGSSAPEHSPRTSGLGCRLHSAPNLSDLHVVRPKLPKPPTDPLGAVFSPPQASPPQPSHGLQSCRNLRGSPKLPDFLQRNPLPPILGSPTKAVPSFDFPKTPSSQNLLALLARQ

| Structure (SMILES) | pIC50 |
| --- | --- |
| O=C1c2sc(-c3nc(Nc4ccc(N5CCN[C@@H](CO)C5)cc4C4CC4)ncc3C(F)(F)F)cc2S(=O)(=O)CCN1C1CC1 [Example 345, (R)-4-cyclopropyl-7-(2-((2-cyclopropyl-4-(3-(hydroxymethyl)piperazin-1-yl)phenyl)amino)-5-(trifluoromethyl)pyrimidin-4-yl)-3,4-dihydrothieno[2,3-f][1,4]thiazepin-5(2H)-one 1,1-dioxide] | ≥ 8.30 |
| C[C@H]1CN(c2ccc(Nc3ncc(C(F)(F)F)c(-c4cc5c(s4)C(=O)N(C4COC4)CCS5(=O)=O)n3)c(C3CC3)c2)CCN1 [Example 341, (S)-7-(2-((2-Cyclopropyl-4-(3-methylpiperazin-1-yl)phenyl)amino)-5-(trifluoromethyl)pyrimidin-4-yl)-4-(oxetan-3-yl)-3,4-dihydrothieno[2,3-f][1,4]thiazepin-5(2H)-one 1,1-dioxide] | ≥ 8.30 |
| C[C@H]1CN(c2ccc(Nc3ncc(C(F)(F)F)c(-c4cc5c(s4)C(=O)N(C4COC4)CCS5(=O)=O)n3)c(C3CC3)c2)C[C@H](C)N1C [Example 351, 7-(2-((2-cyclopropyl-4-((3S,5S)-3,4,5-trimethylpiperazin-1-yl)phenyl)amino)-5-(trifluoromethyl)pyrimidin-4-yl)-4-(oxetan-3-yl)-3,4-dihydrothieno[2,3-f][1,4]thiazepin-5(2H)-one 1,1-dioxide] | 8.00 to 8.30 |
| CCc1cc2c(cc1Nc1ncc(C(F)(F)F)c(-c3cc4c(s3)C(=O)N(C3COC3)CCS4(=O)=O)n1)CNCC2 [Example 262, 7-(2-((6-ethyl-1,2,3,4-tetrahydroisoquinolin-7-yl)amino)-5-(trifluoromethyl)pyrimidin-4-yl)-4-(oxetan-3-yl)-3,4-dihydrothieno[2,3-f][1,4]thiazepin-5(2H)-one 1,1-dioxide] | ≥ 8.30 |
| CN1[C@@H]2CC[C@H]1CN(c1ccc(Nc3ncc(C(F)(F)F)c(-c4cc5c(s4)C(=O)N(C4CC4)CCS5(=O)=O)n3)c(C3CC3)c1)C2 [Example 313, 4-cyclopropyl-7-(2-((2-cyclopropyl-4-((1R,5S)-8-methyl-3,8-diazabicyclo[3.2.1]octan-3-yl)phenyl)amino)-5-(trifluoromethyl)pyrimidin-4-yl)-3,4-dihydrothieno[2,3-f][1,4]thiazepin-5(2H)-one 1,1-dioxide] | ≥ 8.30 |
| CN1CCS(=O)(=O)c2cc(-c3nc(Nc4cc5c(cc4C4CC4)CN(CCF)CC5)ncc3C(F)(F)F)sc2C1=O [Example 236, 7-(2-((7-cyclopropyl-2-(2-fluoroethyl)-1,2,3,4-tetrahydroisoquinolin-6-yl)amino)-5-(trifluoromethyl)pyrimidin-4-yl)-4-methyl-3,4-dihydrothieno[2,3-f][1,4]thiazepin-5(2H)-one 1,1-dioxide] | ≥ 8.30 |
| Cc1nn(CCN(C)C)cc1Nc1ncc(C(F)(F)F)c(-c2cc3c(s2)C(=O)N(C)CCS3(=O)=O)n1 [Example 187, 7-(2-((1-(2-(dimethylamino)ethyl)-3-methyl-1H-pyrazol-4-yl)amino)-5-(trifluoromethyl)pyrimidin-4-yl)-4-methyl-3,4-dihydrothieno[2,3-f][1,4]thiazepin-5(2H)-one 1,1-dioxide] | ≥ 8.30 |
| CCc1cc(N2C[C@@H]3C[C@H]2CN3)ccc1Nc1ncc(C(F)(F)F)c(-c2cc3c(s2)C(=O)N(C2CC2)CCS3(=O)=O)n1 [Example 319, 7-(2-((4-((1S,4S)-2,5-diazabicyclo[2.2.1]heptan-2-yl)-2-ethylphenyl)amino)-5-(trifluoromethyl)pyrimidin-4-yl)-4-cyclopropyl-3,4-dihydrothieno[2,3-f][1,4]thiazepin-5(2H)-one 1,1-dioxide] | ≥ 8.30 |
| CCc1cc(N2C[C@H]3C[C@@H]2CN3)ccc1Nc1ncc(C(F)(F)F)c(-c2cc3c(s2)C(=O)N(C2COC2)CCS3(=O)=O)n1 [Example 336, 7-(2-((4-((1R,4R)-2,5-diazabicyclo[2.2.1]heptan-2-yl)-2-ethylphenyl)amino)-5-(trifluoromethyl)pyrimidin-4-yl)-4-(oxetan-3-yl)-3,4-dihydrothieno[2,3-f][1,4]thiazepin-5(2H)-one 1,1-dioxide] | ≥ 8.30 |
| C[C@H]1CN(c2ccc(Nc3ncc(C(F)(F)F)c(-c4cc5c(s4)C(=O)N(C4COC4)CCS5(=O)=O)n3)c(C3CC3)c2)CCN1C [Example 342, (S)-7-(2-((2-cyclopropyl-4-(3,4-dimethylpiperazin-1-yl)phenyl)amino)-5-(trifluoromethyl)pyrimidin-4-yl)-4-(oxetan-3-yl)-3,4-dihydrothieno[2,3-f][1,4]thiazepin-5(2H)-one 1,1-dioxide] | ≥ 8.30 |
| CCN1CCc2cc(Nc3ncc(C(F)(F)F)c(-c4cc5c(s4)C(=O)N(C)CCS5(=O)=O)n3)c(Cl)cc2C1 [Example 162, 7-(2-((7-chloro-2-ethyl-1,2,3,4-tetrahydroisoquinolin-6-yl)amino)-5-(trifluoromethyl)pyrimidin-4-yl)-4-methyl-3,4-dihydrothieno[2,3-f][1,4]thiazepin-5(2H)-one 1,1-dioxide] | ≥ 8.30 |
| CN1CCS(=O)(=O)c2cc(-c3nc(Nc4cc5c(cc4C4CC4)CNC5)ncc3C(F)(F)F)sc2C1=O [Example 177, 7-(2-((6-cyclopropylisoindolin-5-yl)amino)-5-(trifluoromethyl)pyrimidin-4-yl)-4-methyl-3,4-dihydrothieno[2,3-f][1,4]thiazepin-5(2H)-one 1,1-dioxide] | ≥ 8.30 |
| O=C1NCCS(=O)(=O)c2cc(-c3nc(Nc4cc5c(cc4Cl)CNC5)ncc3C(F)(F)F)sc21 [Example 180, 7-(2-((6-chloroisoindolin-5-yl)amino)-5-(trifluoromethyl)pyrimidin-4-yl)-3,4-dihydrothieno[2,3-f][1,4]thiazepin-5(2H)-one 1,1-dioxide] | ≥ 8.30 |
| CCc1cc(N2C[C@H]3CC[C@@H](C2)N3)ccc1Nc1ncc(C(F)(F)F)c(-c2cc3c(s2)C(=O)N(C2CC2)CCS3(=O)=O)n1 [Example 324, 7-(2-((4-((1R,5S)-3,8-diazabicyclo[3.2.1]octan-3-yl)-2-ethylphenyl)amino)-5-(trifluoromethyl)pyrimidin-4-yl)-4-cyclopropyl-3,4-dihydrothieno[2,3-f][1,4]thiazepin-5(2H)-one 1,1-dioxide] | ≥ 8.30 |
| CCc1cc(C2CCN(CC(F)(F)F)CC2)ccc1Nc1ncc(C(F)(F)F)c(-c2cc3c(s2)C(=O)N(C2CC2)CCS3(=O)=O)n1 [Example 288, 4-cyclopropyl-7-(2-((2-ethyl-4-(1-(2,2,2-trifluoroethyl)piperidin-4-yl)phenyl)amino)-5-(trifluoromethyl)pyrimidin-4-yl)-3,4-dihydrothieno[2,3-f][1,4]thiazepin-5(2H)-one 1,1-dioxide] | < 7.00 |
| CSc1cc2c(cc1Nc1ncc(C(F)(F)F)c(-c3cc4c(s3)C(=O)N(C3CC3)CCS4(=O)=O)n1)CCNC2 [Example 247, 4-cyclopropyl-7-(2-((7-(methylthio)-1,2,3,4-tetrahydroisoquinolin-6-yl)amino)-5-(trifluoromethyl)pyrimidin-4-yl)-3,4-dihydrothieno[2,3-f][1,4]thiazepin-5(2H)-one 1,1-dioxide] | ≥ 8.30 |

Results, then the molecule that gave them:

| pIC50 | Structure (SMILES) |
| --- | --- |
| ≥ 8.30 | C[C@@H]1CN(c2ccc(Nc3ncc(C(F)(F)F)c(-c4cc5c(s4)C(=O)N(C)CCS5(=O)=O)n3)c(C3CC3)c2)CCN1C [Example 378, (R)-7-(2-((2-cyclopropyl-4-(3,4-dimethylpiperazin-1-yl)phenyl)amino)-5-(trifluoromethyl)pyrimidin-4-yl)-4-methyl-3,4-dihydrothieno[2,3-f][1,4]thiazepin-5(2H)-one 1,1-dioxide] |
| ≥ 8.30 | O=C1c2sc(-c3nc(Nc4cc5c(cc4C4CC4)CNCC5)ncc3C(F)(F)F)cc2S(=O)(=O)CCN1CC(F)(F)F [Example 215, 7-(2-((7-cyclopropyl-1,2,3,4-tetrahydroisoquinolin-6-yl)amino)-5-(trifluoromethyl)pyrimidin-4-yl)-4-(2,2,2-trifluoroethyl)-3,4-dihydrothieno[2,3-f][1,4]thiazepin-5(2H)-one 1,1-dioxide] |
| ≥ 8.30 | CCc1cc(N2C[C@H](C)N[C@@H](C)C2)ccc1Nc1ncc(C(F)(F)F)c(-c2cc3c(s2)C(=O)N(C2CC2)CCS3(=O)=O)n1 [Example 356, 4-cyclopropyl-7-(2-((4-((3S,5S)-3,5-dimethylpiperazin-1-yl)-2-ethylphenyl)amino)-5-(trifluoromethyl)pyrimidin-4-yl)-3,4-dihydrothieno[2,3-f][1,4]thiazepin-5(2H)-one 1,1-dioxide] |
| ≥ 8.30 | CCc1cc(N2C[C@H]3C[C@@H]2CN3C)ccc1Nc1ncc(C(F)(F)F)c(-c2cc3c(s2)C(=O)N(C2CC2)CCS3(=O)=O)n1 [Example 323, 4-cyclopropyl-7-(2-((2-ethyl-4-((1R,4R)-5-methyl-2,5-diazabicyclo[2.2.1]heptan-2-yl)phenyl)amino)-5-(trifluoromethyl)pyrimidin-4-yl)-3,4-dihydrothieno[2,3-f][1,4]thiazepin-5(2H)-one 1,1-dioxide] |
| ≥ 8.30 | O=C1c2sc(-c3nc(Nc4ccc(N5CCN[C@@H](CO)C5)cc4C4CC4)ncc3C(F)(F)F)cc2S(=O)(=O)CCN1C1COC1 [Example 358, (R)-7-(2-((2-cyclopropyl-4-(3-(hydroxymethyl)piperazin-1-yl)phenyl)amino)-5-(trifluoromethyl)pyrimidin-4-yl)-4-(oxetan-3-yl)-3,4-dihydrothieno[2,3-f][1,4]thiazepin-5(2H)-one 1,1-dioxide] |
| ≥ 8.30 | CCc1cc2c(cc1Nc1ncc(C(F)(F)F)c(-c3cc4c(s3)C(=O)N(C3CCC3)CCS4(=O)=O)n1)CCNC2 [Example 208, 4-cyclobutyl-7-(2-((7-ethyl-1,2,3,4-tetrahydroisoquinolin-6-yl)amino)-5-(trifluoromethyl)pyrimidin-4-yl)-3,4-dihydrothieno[2,3-f][1,4]thiazepin-5(2H)-one 1,1-dioxide] |
| ≥ 8.30 | CCc1cc2c(cc1Nc1ncc(C(F)(F)F)c(-c3cc4c(s3)C(=O)NCCS4(=O)=O)n1)CCNC2 [Example 138, 7-(2-((7-ethyl-1,2,3,4-tetrahydroisoquinolin-6-yl)amino)-5-(trifluoromethyl)pyrimidin-4-yl)-3,4-dihydrothieno[2,3-f][1,4]thiazepin-5(2H)-one 1,1-dioxide] |
